≈ marks a conversion by molar mass, not a printed value.
Conditions: buffer; pH 7.4; 200.0 µM

| SMILES | solubility kinetic |
| --- | --- |
| CN(Cc1nc(-c2cnccn2)no1)Cc1cccc2ccccc12 | 48.9 µg/mL (≈ 148 µM) |
| Cc1ccc(C(=O)O/N=C/c2ccc(N(C)C)cc2)cc1 | 2.4 µg/mL (≈ 8.5 µM) |
| FC(F)(F)c1ccccc1NC(=S)N1CCCCCC1 | > 45.4 µg/mL |
| c1csc(-c2nc(N3CCCCC3)no2)c1 | 3.8 µg/mL (≈ 16.1 µM) |
| O=C(COC(=O)c1ccc(Cl)cc1[N+](=O)[O-])NC(=O)c1ccccc1 | 4.8 µg/mL (≈ 13.2 µM) |
| CCCC(=O)Nc1c(C(=O)OCC)oc2ccccc12 | > 41.3 µg/mL |
| Cc1cccc(Nc2nc(N)nc(CCl)n2)c1 | > 37.5 µg/mL |
| Cc1ccc(CSc2nccc(-c3c(C)nc4ccccn34)n2)cc1 | 1.6 µg/mL (≈ 4.62 µM) |
| COc1cccc(N=Cc2nc(-c3ccccc3)oc2OC(C)=O)c1 | 10.1 µg/mL (≈ 30 µM) |
| O=C(Cn1cc(/C=C\[N+](=O)[O-])c2ccccc21)Nc1ccccc1 | 2.2 µg/mL (≈ 6.85 µM) |
| NC(=NC(=O)c1cccc(C(F)(F)F)c1)c1ccc(C(F)(F)F)cn1 | 0.9 µg/mL (≈ 2.49 µM) |
| N/C(CSc1ncccc1C(F)(F)F)=N\O | > 37.7 µg/mL |
| CCc1nonc1NC(=O)c1oc2ccc(F)cc2c1C | 0.3 µg/mL (≈ 1.04 µM) |
| COC(=O)C1=C(O)/C(=C/c2cccc(OC)c2O)N=C1C | 35.1 µg/mL (≈ 121 µM) |
| CC(C)(C)C(=O)O/N=C(\N)c1ccc([N+](=O)[O-])s1 | 8.2 µg/mL (≈ 30.2 µM) |
| COc1ccc(NC(=O)c2nc(SC)ncc2Cl)cc1 | 8.2 µg/mL (≈ 26.5 µM) |
| O=C(c1ccccc1)c1cccc[n+]1[O-] | > 29.9 µg/mL |
| CSc1ccccc1C(=O)Nc1ccccc1C(=O)NC(C)C | > 49.3 µg/mL |
| CC(C)Cc1ccc(C(C)C(=O)Nc2ncccn2)cc1 (stereo not given) | 35.9 µg/mL (≈ 127 µM) |
| C=CCOc1ccc(C=Nc2ccc(OC)cc2)c(O)c1 | 6.5 µg/mL (≈ 22.9 µM) |
| C[C@H](Cc1ccccc1)Nc1ncnc2c1ncn2[C@@H]1O[C@H](CO)[C@@H](O)[C@H]1O | > 57.8 µg/mL |
| COc1ccc(CC(=O)OCC(=O)c2ccc[nH]2)cc1 | > 41 µg/mL |
| Cc1c(Cl)cccc1NC(=S)NCCc1ccc(F)cc1 | 1.2 µg/mL (≈ 3.72 µM) |
| O=C(Nc1ccccc1)C(=O)Nc1cccnc1 | 6.9 µg/mL (≈ 28.6 µM) |
| O=C(COC(=O)C1CC2C=CC1C2)Nc1ccccc1F (stereo not given) | > 43.4 µg/mL |
| O=C(NCc1cccnc1)C12CC3CC(CC(C3)C1)C2 | 38.7 µg/mL (≈ 143 µM) |

Other lines, results leading:

| solubility kinetic | SMILES |
| --- | --- |
| 0.9 µg/mL (≈ 2.4 µM) | CC(=O)c1sc(-c2ccc(F)cc2)cc1NS(=O)(=O)c1ccccc1 |
| > 59.1 µg/mL | COc1ccc(Cl)cc1NC(=O)CN(C)CC(=O)NCc1ccc(F)cc1 |
| > 49.7 µg/mL | Cc1ccc(N2CC(C(=O)NCCN3CCOCC3)CC2=O)cc1 (stereo not given) |
| 9.8 µg/mL (≈ 35 µM) | CCn1c(C)c(CS(=O)(=O)c2ccccc2)[nH]c1=O |
| 0.8 µg/mL (≈ 2.84 µM) | Cc1cc(NC(=O)c2ccc(Cl)c([N+](=O)[O-])c2)no1 |
| > 43.6 µg/mL | COc1ccc(/C=C/C(=O)N2CCN(C)CC2)cc1OC |
| > 38.8 µg/mL | Nc1nnc(SCC(=O)N2CCCCC2)s1 |
| > 36.9 µg/mL | O=C1CCCc2c1nc(-c1ccc(F)cc1)n2O |
| > 51.1 µg/mL | CCCc1nnc(SCC(=O)N(CC)CC)n1CC1CCCO1 (stereo not given) |
| 27.2 µg/mL (≈ 119 µM) | O=C(C1CCCCC1)N1CCc2ccccc21 |
| 11.6 µg/mL (≈ 41.7 µM) | CNC(=O)c1c(NC(=O)c2ccco2)sc(C)c1C |
| > 48.7 µg/mL | CCCN1CCN(CCNC(=O)Nc2ccccc2Cl)CC1 |
| 0.9 µg/mL (≈ 2.57 µM) | Cn1c(/C(C#N)=C(\O)c2cc(Cl)sc2Cl)nc2ccccc21 |
| 5.3 µg/mL (≈ 16.6 µM) | CC1CCCC(NC(=O)c2ccc3c(c2)NC(=O)CS3)C1C (stereo not given) |
| > 50 µg/mL | CC1C(=O)N2CCCc3cc(S(=O)(=O)N(C)CCC#N)cc1c32 (stereo not given) |
| 3.7 µg/mL (≈ 10.3 µM) | O=C(NCCN1CCN(c2ccccc2)CC1)Nc1ccc(Cl)cc1 |
| > 40.4 µg/mL | CN1CC(=O)Nc2ccc(Br)cc2C1=O |

| solubility kinetic | SMILES |
| --- | --- |
| 46.3 µg/mL (≈ 144 µM) | CC12CCC(=O)N1C(C(=O)NCCc1ccc(F)cc1)CS2 (stereo not given) |
| 33.7 µg/mL (≈ 127 µM) | CC(=O)c1cn(-c2ccc(Cl)cc2)c(=O)[nH]c1=O |
| 0.4 µg/mL (≈ 1.11 µM) | O=C(Nc1ccc(F)c(Cl)c1)C1CC(=O)n2c(nc3ccccc32)N1 (stereo not given) |
| 46.4 µg/mL (≈ 140 µM) | N#CC1(NC(=O)CSc2nc3ccccc3s2)CCCCC1 |
| > 41 µg/mL | O=C1CSC(c2cccc(F)c2)N1c1ccccc1 (stereo not given) |
| 3.4 µg/mL (≈ 9.03 µM) | Cc1coc2cc3oc(=O)c(CCC(=O)NCc4ccccn4)c(C)c3cc12 |
| 14.5 µg/mL (≈ 48.8 µM) | CCOc1cc(C)c(S(=O)(=O)N2CCCCC2)cc1C |
| 37.1 µg/mL | CCOc1ccc(CNC2CCCCCCC2)cc1OC.Cl |
| 4.5 µg/mL (≈ 14.7 µM) | Cc1cc2oc(=O)cc(CN3CCCCC3C)c2cc1Cl (stereo not given) |
| < 0.3 µg/mL | Cc1cccc(-c2nc3cc([N+](=O)[O-])ccc3o2)c1 |
| 14.3 µg/mL (≈ 40.6 µM) | CCCC/C(O)=C1\C(=O)CCCC1=NCCc1c(C)[nH]c2ccccc12 |
| 34.8 µg/mL (≈ 143 µM) | O=C(O)c1cncc(C#CCC2CCCCC2)c1 |
| > 52.4 µg/mL | COc1cccc(CNC(=O)CCN2C(=S)NC(C)(C)CC2C)c1 (stereo not given) |
| > 44.3 µg/mL | O=C(c1ccco1)N1CCC(c2nc3ccccc3[nH]2)CC1 |
| 1.6 µg/mL (≈ 3.95 µM) | COCCNC(=O)c1cc2cc(Br)cc(Br)c2oc1=O |
| 7.7 µg/mL (≈ 21.5 µM) | Cc1ccc(NC(=O)CN2CCN(Cc3ccccc3)CC2)cc1Cl |
| > 42.5 µg/mL | COC(=O)CSc1nc(C)cc(N2CCOCC2)n1 |
